These compounds were tested against T1, human PAD4 (Homo sapiens, UniProt Q9UM07) (assay: In vitro PAD4 BAEE biochemical assay). Settings: BAEE substrate 3 mM, 5 nM PAD4, 2 mM calcium chloride; geometric mean of multiple experiments.
T1 construct: human PAD4 (NM_012387), A2-P663, was PCR amplified; His-SUMO (N, cleaved yes); made in house; host or cells: E. coli BL21(DE3)
T1 sequence (Q9UM07 2-663): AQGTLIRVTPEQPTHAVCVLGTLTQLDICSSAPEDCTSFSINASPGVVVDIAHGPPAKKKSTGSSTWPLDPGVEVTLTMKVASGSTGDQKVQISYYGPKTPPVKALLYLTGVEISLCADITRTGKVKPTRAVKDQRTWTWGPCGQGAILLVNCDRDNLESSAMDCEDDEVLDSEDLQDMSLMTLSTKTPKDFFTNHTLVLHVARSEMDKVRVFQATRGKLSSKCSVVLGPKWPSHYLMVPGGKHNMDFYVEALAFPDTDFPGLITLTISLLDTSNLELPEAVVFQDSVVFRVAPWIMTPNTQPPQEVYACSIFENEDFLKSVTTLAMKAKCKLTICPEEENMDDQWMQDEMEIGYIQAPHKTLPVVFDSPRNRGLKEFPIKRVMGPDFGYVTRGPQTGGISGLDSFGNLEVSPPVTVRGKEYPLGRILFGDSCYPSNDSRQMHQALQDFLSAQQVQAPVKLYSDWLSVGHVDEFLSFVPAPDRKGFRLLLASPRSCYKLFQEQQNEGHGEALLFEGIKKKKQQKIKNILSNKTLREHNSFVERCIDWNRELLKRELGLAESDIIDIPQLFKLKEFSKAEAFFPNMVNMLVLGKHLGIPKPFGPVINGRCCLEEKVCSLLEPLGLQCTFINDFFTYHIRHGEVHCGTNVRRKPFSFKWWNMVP
Method in brief: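 PAD4 5 nM, CaCl2 2 mM, BAEE 3 mM final; 50 mM MOPS pH 7.6, 50 mM NaCl, 0.05% Tween-20, 2 mM DTT. Cpd + enzyme 30 min 25 °C; substrate 2 h 25 °C; EDTA stop; OPA detection 1 h. IC50 4-parameter fit.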
`CO[C@@H]1CCN(C(=O)c2cc(F)c3c(c2)nc(-c2cc4ccc5nc4n2CC(F)(F)CCC[C@@H]2C[C@H]2C(=O)N[C@@H]5C)n3[C@H]2C[C@@H]2F)C[C@@H]1N` [Example 834, (2~{R},5~{R},7~{R})-14-[5-[(3~{S),4~{R})-3-amino-4-methoxy-piperidine-1-carbonyl]-7-fluoro-1-[(1~{S},2~{S})-2-fluorocyclopropyl]benzimidazol-2-yl]-11,11-difluoro-2-methyl-3,13,19-triazatetracyclo [11.5.2.0^{5,7}.0^{16,20}] icosa-1(19),14,16(20), 17-tetraen-4-one] showed an IC50 of 126 nM.
`C[C@@H]1[C@H](N)CCCN1C(=O)c1cc(F)c2c(c1)nc(-c1cc3ccc4nc3n1CC(F)(F)CCC[C@@H]1C[C@H]1C(=O)N[C@@H]4C)n2[C@H]1C[C@@H]1F` [Example 835, (2~{R},5~{R},7~{R})-14-[5-[(2~{R},3~{R})-3-amino-2-methyl-piperidine-1-carbonyl]-7-fluoro-1-[(1~{S},2~{S})-2-fluorocyclopropyl]benzimidazol-2-yl]-11,11-difluoro-2-methyl-3,13,19-triazatetracyclo[11.5.2.0^ {5,7}.0^{16,20}] icosa-1(19),14,16(20), 17-tetraen-4-one] showed an IC50 of 16 nM.
Compound `CO[C@@H]1CCN(C(=O)c2cc(F)c3c(c2)nc(-c2cc4ccc5nc4n2CCCCCc2ccnc(C(F)(F)F)c2C(=O)N[C@@H]5C)n3C2CC2)C[C@@H]1N` [Example 836, (2~{R})-17-[5-[(3~{S}, 4~{R})-3-amino-4-methoxy-piperidine-1-carbonyl]-1-cyclopropyl-7-fluoro-benzimidazol-2-yl]-2-methyl-6-(trifluoromethyl)-3,7,16,22-tetrazatetracyclo[14.5.2.0^ {5,10}.0^{19,23}] tricosa-1(22),5(10), 6,8,17,19(23),20-heptaen-4-one] has an IC50 of 32 nM.
`CO[C@@H]1CCN(C(=O)c2cc(F)c3c(c2)nc(-c2cc4ccc5nc4n2CC(F)(F)CCC[C@@H]2C[C@H]2C(=O)N[C@@H]5C)n3[C@@H]2C[C@H]2F)C[C@@H]1N` [Example 837, (2~{R},5~{R},7~{R})-14-[5-[(3~{S},4~{R})-3-amino-4-methoxy-piperidine-1-carbonyl]-7-fluoro-1-[(1~{R},2~{R})-2-fluorocyclopropyl]benzimidazol-2-yl]-11,11-difluoro-2-methyl-3,13,19-triazatetracyclo [11.5.2.0^{5,7}.0^{16,20}] icosa-1(19),14,16(20), 17-tetraen-4-one] showed an IC50 of 30 nM.
Compound `C[C@@H]1[C@H](N)CCCN1C(=O)c1cc(F)c2c(c1)nc(-c1cc3ccc4nc3n1CCCCCc1nc(C(F)(F)F)ccc1C(=O)N[C@@H]4C)n2C1CC1` [Example 838, (2~{R})-17-[5-[(2~{R}, 3~{R})-3-amino-2-methyl-piperidine-1-carbonyl]-1-cyclopropyl-7-fluoro-benzimidazol-2-yl]-2-methyl-8-(trifluoromethyl)-3,9,16,22-tetrazatetracyclo[14.5.2.0^ {5,10).0^{19,23}] tricosa-1(22),5(10), 6,8,17,19(23),20-heptaen-4-one] has an IC50 of 49 nM.
Work on `C[C@H]1NC(=O)c2nc3ccccc3nc2CCCCCn2c(-c3nc4cc(C(=O)N5C[C@H](N)[C@@H]6CC[C@H]5C6)cc(F)c4n3C3CC3)cc3ccc1nc32` [Example 839, (2~{R})-21-[5-[(1~ {S},4~{R},5~{R})-4-amino-2-azabicyclo[3.2.1]octane-2-carbonyl]-1-cyclopropyl-7-fluoro-benzimidazol-2-yl]-2-methyl-3,6,13,20,26-pentazapentacyclo[18.5.2.0^ {5,14}.0^{7,12}.0^ {23,27}]heptacosa-1(26),5(14), 6,8,10,12,21,23(27),24-nonaen-4-one] yielded an IC50 of 13 nM.
Work on `C[C@H]1NC(=O)c2ccc(Cl)nc2CCCCCn2c(-c3nc4cc(C(=O)N5C[C@H](N)[C@@H]6CC[C@H]5C6)cc(F)c4n3[C@H]3C[C@@H]3F)cc3ccc1nc32` [Example 840, (2~{R})-17-[5-[(1~{S), 4~{R},5~{R})-4-amino-2-azabicyclo[3.2.1]octane-2-carbonyl]-7-fluoro-1-[(1~ {S},2~{S})-2-fluorocyclopropyl]benzimidazol-2-yl]-8-chloro-2-methyl-3,9,16,22-tetrazatetracyclo[14.5.2.0^ {5,10).0^{19,23}]tricosa-1(22), 5(10),6,8,17,19(23),20-heptaen-4-one] yielded an IC50 of 61 nM.
With `C[C@H]1NC(=O)c2c(ccc3cccnc23)CCCCCn2c(-c3nc4cc(C(=O)N5C[C@H](N)[C@@H]6CC[C@H]5C6)cc(F)c4n3C3CC3)cc3ccc1nc32` [Example 841, (2~{R})-21-[5-[(1~{S},4~{R}, 5~{R})-4-amino-2-azabicyclo [3.2.1]octane-2-carbonyl]-1-cyclopropyl-7-fluoro-benzimidazol-2-yl]-2-methyl-3,7,20,26-tetrazapentacyclo [18.5.2.0^{5,14}.0^{6,1 1}.0^{23,27}]heptacosa-1(26),5(14),6(11),7,9,12,21, 23(27),24-nonaen-4-one] the IC50 was 17 nM.
`COc1cc(C(=O)N2C[C@H](N)[C@@H]3CC[C@H]2C3)cc2nc(-c3cc4ccc5nc4n3CCCCCc3nc(C(F)(F)F)ccc3C(=O)N[C@@H]5C)n(C)c12` [Example 842, (2~{R})-17-[5-[(1~{S},4~{R},5~ {R})-4-amino-2-azabicyclo[3.2.1]octane-2-carbonyl]-7-methoxy-1-methyl-benzimidazol-2-yl]-2-methyl-8-(trifluoromethyl)-3,9,16,22-tetrazatetracyclo[14.5.2.0^ {5,10}.0^{19,23}]tricosa-1(22), 5(10),6,8,17,19(23),20-heptaen-4-one] was tested, and the IC50 was 49 nM.
Work on `C[C@H]1NC(=O)c2ccc(C(F)F)nc2CCCCCn2c(-c3nc4cc(C(=O)N5C[C@H](N)[C@@H]6CC[C@H]5C6)cc(F)c4n3C3CC3)cc3ccc1nc32` [Example 843, (2~{R})-17-[5-[(1~{S},4~ {R},5~{R})-4-amino-2-azabicyclo[3.2.1]octane-2-carbonyl]-1-cyclopropyl-7-fluoro-benzimidazol-2-yl]-8-(difluoromethyl)-2-methyl-3,9,16,22-tetrazatetracyclo [14.5.2.0^{5,10}.0^{19,23}] tricosa-1(22),5(10),6,8,17, 19(23),20-heptaen-4-one] yielded an IC50 of 18 nM.
For `C[C@H]1NC(=O)c2cnc(C(F)(F)F)cc2CCCCCn2c(-c3nc4cc(C(=O)N5C[C@H](N)[C@@H]6CC[C@H]5C6)cc(F)c4n3C3CC3)cc3ccc1nc32` [Example 844, (2~{R})-17-[5-[(1~{S},4~ {R},5~{R})-4-amino-2-azabicyclo [3.2.1]octane-2-carbonyl]-1-cyclopropyl-7-fluoro-benzimidazol-2-yl]-2-methyl-8-(trifluoromethyl)-3,7,16,22-tetrazatetracyclo[14.5.2.0^ {5,10).0^{19,23}]tricosa-1(22),5(10),6,8,17,19(23),20-heptaen-4-one], the IC50 was 35 nM.
For `COc1cc(C(=O)N2C[C@H](N)[C@@H]3CC[C@H]2C3)cc2nc(-c3cc4ccc5nc4n3CCCCCc3nccc(Cl)c3C(=O)N[C@@H]5C)n(C)c12` [Example 845, (2~{R})-17-[5-[(1~{S},4~{R}, 5~{R})-4-amino-2-azabicyclo [3.2.1]octane-2-carbonyl]-7-methoxy-1-methyl-benzimidazol-2-yl]-6-chloro-2-methyl-3,9,16,22-tetrazatetracyclo[14.5.2.0^ {5,10}.0^{19,23}]tricosa-1(22),5(10),6,8,17,19(23),20-heptaen-4-one], the IC50 was 16 nM.
`C[C@H]1NC(=O)c2ccc(Cl)nc2CCCCCn2c(-c3nc4cc(C(=O)N5C[C@H](N)[C@@H]6CC[C@H]5C6)cc(F)c4n3[C@H]3C[C@H]3F)cc3ccc1nc32` [Example 846, (2~{R})-17-[5-[(1~{S),4~{R}, 5~{R})-4-amino-2-azabicyclo [3.2.1]octane-2-carbonyl]-7-fluoro-1-[(1~{S},2~{R})-2-fluorocyclopropyl]benzimidazol-2-yl]-8-chloro-2-methyl-3,9,16,22-tetrazatetracyclo[14.5.2.0^ {5,10).0^{19,23}]tricosa-1(22),5(10),6,8,17,19(23),20-heptaen-4-one] gave an IC50 of 27 nM.
With `COc1cc(C(=O)N2C[C@H](N)[C@@H]3CC[C@H]2C3)cc2nc(-c3cc4ccc5nc4n3CCCCCc3nc(C(F)(F)F)ccc3C(=O)N[C@@H]5C)n(C3CC3)c12` [Example 847, (2~{R})-17-[5-[(1~{S},4~{R}, 5~{R})-4-amino-2-azabicyclo [3.2.1]octane-2-carbonyl]-1-cyclopropyl-7-methoxy-benzimidazol-2-yl]-2-methyl-8-(trifluoromethyl)-3,9,16,22-tetrazatetracyclo[14.5.2.0^ {5,10}.0^{19,23}]tricosa-1(22),5(10),6,8,17,19(23),20-heptaen-4-one] the IC50 was 82 nM.
In the case of `COc1cc(C(=O)N2CC[C@@H](OC)[C@@H](N)C2)cc2nc(-c3cc4ccc5nc4n3CC(F)(F)CCC[C@@H]3C[C@H]3C(=O)N[C@@H]5C)n(C)c12` [Example 848, (2~{R},5~{R},7~{R})-14-[5-[(3~{S},4~{R})-3-amino-4-methoxy-piperidine-1-carbonyl]-7-methoxy-1-methyl-benzimidazol-2-yl]-11,11-difluoro-2-methyl-3,13,19-triazatetracyclo[11.5.2.0^ {5,7}.0^{16,20}]icosa-1(19),14,16(20),17-tetraen-4-one], the IC50 is reported as 33 nM.
`COc1cc(C(=O)N2C[C@H](N)CC[C@@H]2C)cc2nc(-c3cc4ccc5nc4n3CC(F)(F)CCC[C@@H]3C[C@H]3C(=O)N[C@@H]5C)n(C)c12` [Example 849, (2~{R},5~{R},7~{R})-14-[5-[(2~{S},5~{R})-5-amino-2-methyl-piperidine-1-carbonyl]-7-methoxy-1-methyl-benzimidazol-2-yl]-11,11-difluoro-2-methyl-3,13,19-triazatetracyclo[11.5.2.0^ {5,7}.0^{16,20}]icosa-1(19), 14,16(20),17-tetraen-4-one] was tested, and the IC50 was 15 nM.

Source: patent publication US11976083B2, “Inhibitors of peptidylarginine deiminases” (Gilead Sciences, Inc., priority 2020, dated 2024)
